Test results taken from ChEMBL document CHEMBL4177690, “(E)-3-(3,4,5-Trimethoxyphenyl)-1-(pyridin-4-yl)prop-2-en-1-one, a heterocyclic chalcone is a potent and selective CYP1A1 inhibitor and cancer chemopreventive agent” (Bioorg Med Chem Lett, 2017).

Experiments:
Cytochrome P450 2D6 [1] = molecular target: T1, Cytochrome P450 2D6 (Homo sapiens, UniProt P10635); assay: Inhibition of recombinant human CYP2D6 expressed in HEK293 cells using 7-ethoxy-methyloxy-3-cyanocoumarin as substrate pretreated for 30 mins followed by substrate addition measured for 60 mins by fluorescence assay; type: ADME, cell-based
T1 sequence (P10635 whole entry): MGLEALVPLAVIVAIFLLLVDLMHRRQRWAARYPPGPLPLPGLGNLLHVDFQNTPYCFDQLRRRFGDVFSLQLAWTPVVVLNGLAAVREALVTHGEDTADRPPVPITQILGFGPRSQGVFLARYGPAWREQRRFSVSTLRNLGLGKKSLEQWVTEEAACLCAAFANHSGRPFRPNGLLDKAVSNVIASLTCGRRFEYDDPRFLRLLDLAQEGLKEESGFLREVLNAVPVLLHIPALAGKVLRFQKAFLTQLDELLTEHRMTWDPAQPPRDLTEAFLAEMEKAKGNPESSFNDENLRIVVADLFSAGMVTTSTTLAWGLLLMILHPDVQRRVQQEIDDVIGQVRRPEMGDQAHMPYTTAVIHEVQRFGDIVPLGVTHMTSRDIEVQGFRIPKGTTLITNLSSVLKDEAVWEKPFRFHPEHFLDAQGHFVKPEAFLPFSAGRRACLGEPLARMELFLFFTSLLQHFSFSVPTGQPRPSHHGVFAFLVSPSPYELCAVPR

Cytochrome P450 2C19 = Cytochrome P450 2C19 (Homo sapiens, UniProt P33261); assay: Inhibition of human CYP2C19 expressed in yeast microsomal membranes using 3-cyano-7-ethoxycoumarin as substrate measured after 10 mins by fluorescence assay; type: ADME, cell membranes, Microsomal Membrane
Chain of Cytochrome P450 2C19 (P33261 whole entry): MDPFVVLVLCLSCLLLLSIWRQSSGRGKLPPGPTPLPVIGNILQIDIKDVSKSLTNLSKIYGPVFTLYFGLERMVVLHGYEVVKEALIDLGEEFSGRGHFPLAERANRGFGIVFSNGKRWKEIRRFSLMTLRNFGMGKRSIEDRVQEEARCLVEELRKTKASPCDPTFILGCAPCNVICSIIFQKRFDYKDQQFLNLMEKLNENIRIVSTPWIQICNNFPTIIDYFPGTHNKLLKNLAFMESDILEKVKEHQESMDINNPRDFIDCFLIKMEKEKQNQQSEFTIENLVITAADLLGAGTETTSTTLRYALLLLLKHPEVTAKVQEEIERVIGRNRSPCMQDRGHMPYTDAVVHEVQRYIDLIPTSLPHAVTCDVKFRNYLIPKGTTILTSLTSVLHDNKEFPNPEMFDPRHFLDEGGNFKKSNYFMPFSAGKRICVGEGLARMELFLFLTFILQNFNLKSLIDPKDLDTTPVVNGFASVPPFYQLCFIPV

Cytochrome P450 1A1 [2] = molecular target: T2, Cytochrome P450 1A1 (Homo sapiens, UniProt P04798); assay: Inhibition of human CYP1A1 expressed in yeast cells; type: cell-based
T2 sequence (P04798 whole entry): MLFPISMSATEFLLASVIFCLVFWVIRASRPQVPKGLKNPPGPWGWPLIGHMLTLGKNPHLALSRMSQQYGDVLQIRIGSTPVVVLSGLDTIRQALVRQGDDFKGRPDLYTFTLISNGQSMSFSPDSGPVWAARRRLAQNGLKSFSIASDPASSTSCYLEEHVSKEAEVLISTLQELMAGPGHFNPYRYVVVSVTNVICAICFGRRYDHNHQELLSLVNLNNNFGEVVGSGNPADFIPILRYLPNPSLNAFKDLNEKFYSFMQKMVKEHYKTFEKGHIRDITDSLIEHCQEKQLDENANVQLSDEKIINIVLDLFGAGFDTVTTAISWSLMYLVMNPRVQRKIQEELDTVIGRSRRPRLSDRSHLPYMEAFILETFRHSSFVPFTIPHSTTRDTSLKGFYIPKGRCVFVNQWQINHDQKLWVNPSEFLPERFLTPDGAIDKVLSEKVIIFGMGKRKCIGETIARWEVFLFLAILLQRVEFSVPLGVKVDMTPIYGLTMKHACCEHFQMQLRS

Cytochrome P450 3A4 = Cytochrome P450 3A4 (Homo sapiens, UniProt P08684); assay: Inhibition of recombinant human CYP3A4 expressed in HEK293 cells using dibenzylfluorescein as substrate pretreated for 30 mins followed by substrate addition measured for 60 mins by fluorescence assay; type: ADME
Chain of Cytochrome P450 3A4 (P08684 whole entry): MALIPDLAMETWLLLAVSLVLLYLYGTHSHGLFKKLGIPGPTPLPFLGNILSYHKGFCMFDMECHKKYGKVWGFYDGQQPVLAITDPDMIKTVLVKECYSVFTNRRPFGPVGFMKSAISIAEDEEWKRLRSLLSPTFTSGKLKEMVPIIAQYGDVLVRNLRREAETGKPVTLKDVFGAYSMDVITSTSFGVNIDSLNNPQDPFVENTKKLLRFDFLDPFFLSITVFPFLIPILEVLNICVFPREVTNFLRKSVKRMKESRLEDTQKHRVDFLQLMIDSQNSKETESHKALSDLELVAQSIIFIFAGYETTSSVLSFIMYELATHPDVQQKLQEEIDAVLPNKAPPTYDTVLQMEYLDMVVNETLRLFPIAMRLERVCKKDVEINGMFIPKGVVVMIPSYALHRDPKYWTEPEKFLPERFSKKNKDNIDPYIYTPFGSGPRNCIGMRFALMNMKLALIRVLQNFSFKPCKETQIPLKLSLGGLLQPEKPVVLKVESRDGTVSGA

Cytochrome P450 2D6 [3] = molecular target: T1, Cytochrome P450 2D6; assay: Inhibition of human CYP2D6 expressed in yeast microsomal membranes using 7-ethoxy-methyloxy-3-cyanocoumarin as substrate measured after 10 mins by fluorescence assay; type: ADME, cell membranes, Microsomal Membrane
Cytochrome P450 1A1 [4] = molecular target: T2, Cytochrome P450 1A1; assay: Time-dependent inhibition of human CYP1A1 expressed in yeast microsomal membranes using 7-ethoxyresorufin as substrate; type: cell membranes
Cytochrome P450 1A1 [5] = molecular target: T2, Cytochrome P450 1A1; assay: Inhibition of human CYP1A1 expressed in yeast microsomal membranes using 7-ethoxyresorufin as substrate measured after 10 mins by fluorescence assay; type: cell membranes
Homo sapiens [6] = species on record: Homo sapiens; assay: Selectivity ratio of IC50 for human CYP1A2 expressed in yeast microsomal membranes to IC50 for human CYP1A1 expressed in yeast microsomal membranes; type: cell membranes
Cytochrome P450 1A1 [7] = molecular target: T2, Cytochrome P450 1A1; assay: Competitive inhibition of human CYP1A1 using 7-ethoxyresorufin as substrate
Cytochrome P450 2B6 = molecular target: T3, Cytochrome P450 2B6 (Homo sapiens, UniProt P20813); assay: Inhibition of human CYP2B6 expressed in yeast cells; type: ADME, cell-based
T3 sequence (P20813 whole entry): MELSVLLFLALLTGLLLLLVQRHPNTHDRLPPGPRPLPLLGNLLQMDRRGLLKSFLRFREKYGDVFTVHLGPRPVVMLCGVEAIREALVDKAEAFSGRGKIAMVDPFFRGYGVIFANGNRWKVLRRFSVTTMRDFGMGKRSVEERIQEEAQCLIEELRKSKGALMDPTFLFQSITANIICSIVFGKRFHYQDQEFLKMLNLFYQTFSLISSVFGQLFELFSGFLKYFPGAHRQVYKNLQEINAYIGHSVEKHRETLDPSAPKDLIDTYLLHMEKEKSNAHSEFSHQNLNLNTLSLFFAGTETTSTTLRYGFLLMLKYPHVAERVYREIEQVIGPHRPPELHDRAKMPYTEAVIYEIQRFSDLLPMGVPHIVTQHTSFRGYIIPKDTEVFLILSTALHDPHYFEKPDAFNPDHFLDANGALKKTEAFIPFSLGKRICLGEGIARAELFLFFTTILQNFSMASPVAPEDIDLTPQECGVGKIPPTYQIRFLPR

[8] = molecular target: T4, Aryl hydrocarbon receptor (Homo sapiens, UniProt P35869); assay: Antagonist activity at recombinant human eGFP-fused Ahr expressed in yeast cells co-expressing ARNT assessed as inhibition of benzo(a)pyrene-induced Ahr activation at 1 uM measured after 18 hrs by fluorescence assay; type: cell-based
T4 sequence (P35869 whole entry): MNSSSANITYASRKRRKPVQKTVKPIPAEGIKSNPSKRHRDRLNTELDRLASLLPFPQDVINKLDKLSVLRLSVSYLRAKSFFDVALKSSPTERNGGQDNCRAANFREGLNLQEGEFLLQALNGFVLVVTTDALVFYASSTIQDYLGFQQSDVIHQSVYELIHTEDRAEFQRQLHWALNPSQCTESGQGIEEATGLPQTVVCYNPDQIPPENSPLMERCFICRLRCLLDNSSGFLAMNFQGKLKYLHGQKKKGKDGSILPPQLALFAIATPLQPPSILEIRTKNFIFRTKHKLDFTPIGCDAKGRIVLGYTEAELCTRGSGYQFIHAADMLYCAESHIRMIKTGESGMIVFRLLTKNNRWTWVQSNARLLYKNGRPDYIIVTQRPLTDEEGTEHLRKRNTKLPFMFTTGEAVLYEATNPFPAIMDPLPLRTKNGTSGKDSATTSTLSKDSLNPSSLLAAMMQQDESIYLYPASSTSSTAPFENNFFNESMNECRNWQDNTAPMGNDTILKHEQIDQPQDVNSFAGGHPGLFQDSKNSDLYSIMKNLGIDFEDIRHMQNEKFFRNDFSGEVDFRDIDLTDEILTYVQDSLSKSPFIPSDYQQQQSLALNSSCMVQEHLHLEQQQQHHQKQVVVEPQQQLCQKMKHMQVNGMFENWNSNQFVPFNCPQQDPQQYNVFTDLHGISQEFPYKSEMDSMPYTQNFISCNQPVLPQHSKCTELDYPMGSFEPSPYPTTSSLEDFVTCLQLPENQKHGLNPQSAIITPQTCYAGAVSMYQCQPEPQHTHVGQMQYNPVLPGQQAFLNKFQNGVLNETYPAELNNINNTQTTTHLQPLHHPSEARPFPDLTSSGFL

Homo sapiens [9] = species on record: Homo sapiens; assay: Selectivity ratio of IC50 for recombinant human CYP2C19 to IC50 for recombinant human CYP1A1

COc1cc(/C=C/C(=O)c2ccncc2)cc(OC)c1OC
IC50 (Cytochrome P450 2D6 [1]): > 10 µM
IC50 (Cytochrome P450 2C19): > 20 µM
IC50 (Cytochrome P450 1A1 [2]): 0.15 µM
IC50 (Cytochrome P450 3A4): > 10 µM
IC50 (Cytochrome P450 2D6 [3]): 5 µM
TDI (Cytochrome P450 1A1 [4]): Not Active
IC50 (Cytochrome P450 1A1 [5]): 0.061 µM
Ratio IC50 (Homo sapiens [6]): > 10
Ki (Cytochrome P450 1A1 [7]): 0.28 µM
IC50 (Cytochrome P450 2B6): > 10 µM
inhibition (INH) [8]: Active
Ratio IC50 (Homo sapiens [9]): > 100
